Values of other authors in patent US20190290552A1, “ETHANOLIC COMPOSITIONS COMPRISING PERFUME” (Conopco, Inc., d/b/a UNILEVER, priority 2016, published 2019).

Conditions: taken from the Good Scents website
In the case of `O=C1CCCCCCCCCCCCO1` [Oxacyclotetradecan-2-one], the LogKow is listed as 4.7.
In the case of `CC(C=O)Cc1ccc(C(C)(C)C)cc1` (centres unmarked) [Lilial], the LogKow is given as 3.6.
For `C=C(C)[C@H]1CC=C(C)CC1` [Limonene], the LogKow is given as 3.4.
In the case of `C=CC(C)(CCC=C(C)C)OC(=O)CCC` (centres unmarked) [Linalyl Butyrate], the LogKow is given as 4.1.
For `C=CC(C)(O)CCC=C(C)CC` (centres unmarked) [3,7-Dimethyl-1,6-nonadien-3-ol], the LogKow is given as 3.7.
In the case of `CCCCCC1C(=O)CCC1CC(=O)OC` (centres unmarked) [Methyl dihydrojasmonate], the LogKow is listed as 2.7.
For `CC1=CC[C@]2(C)CCCC(C)(C)[C@@]23C[C@@H]13` [Thujopsene], the LogKow is given as 4.8.
In the case of `C=CC(C)(O)CCC=C(C)C` (centres unmarked) [Linalool], the LogKow is given as 2.7.
